Experiments:
[1] = test system: sciatic nerve; experiment: Axonal regeneration after bilateral sciatic nerve crush injury (axonotmesis); assay type: in vivo, rat; settings: 1 U in 2 μl; 2 days after injury; 6 nerves per condition
Protocol: (§1) Surgical procedures for nerve transection and nerve crush experiments. All surgical procedures were performed according to Institutional Animal Care and Use Committee (IACUC) approved protocols. Young adult SPRAGUE DAWLEY rats (HARLAN Indianapolis, Ind.) were deeply anesthetized with xylazine (15 mg/kg, i.m.) followed by ketamine-HCl (110 mg/kg, i.p.). Six animals received bilateral nerve crush injuries. Sciatic nerves were exposed and then crushed with firm pressure for thirty seconds with a DUMONT #5 forceps at a site 4 mm distal to the tendon of the internal obdurator. The crush site was marked with an epineurial suture. In a separate set of experiments, eight rats received bilateral sciatic nerve transection injuries using serrated scissors. The proximal and distal stumps were […] by epineurial neurorrhaphy using 9-0 ETHILON sutures. Fibrin glue (fibrinogen and thrombin) was then applied to stabilize the union. […]
(§2) Immunocytochemistry. Axonal regeneration was assessed by GAP-43 immunofluorescence and digital image analysis. […]
The hypothesis that chondroitinase treatment improves axonal growth through the site of nerve crush injury was tested. […] Regenerating axons were labeled by GAP-43 immunofluorescence and scored by digital image analysis. […]

[2] = test system: sciatic nerve; experiment: Axonal regeneration after sciatic nerve transection (neurotmesis) and neurorrhaphic repair; assay type: in vivo, rat
[3] = test system: rat sciatic nerve; experiment: Human-to-rat acellular nerve xenograft model (GAP-43 profiles); assay type: in vivo; settings: acellular human nerve fascicle grafts in rat, 8 days, 2 rats
Protocol: In the following experiments, the hypothesis that chondroitinase treatment improves nerve regeneration through acellular human nerve grafts in a rat xenograft model was tested. Subunits (individual fascicles) taken from human nerves were treated en bloc with vehicle or chondroitinase ABC. Ten-mm interpositional nerve grafts were joined to the rat host sciatic nerve by epineurial neurorrhaphy reinforced with fibrin glue. Each of 2 host rats received bilateral grafts, one vehicle-treated and one chondroitinase-treated graft. Regeneration was initially examined after 8 days. Axonal growth was assessed at specified spatial intervals within the graft by scoring GAP-43-immunopositive profiles in transverse sections.

[4] = test system: CSPG; experiment: CSPG neoepitope immunostaining of injured sciatic nerve after a single in vivo injection; set-up: species or system rat; settings: 1 U in 2 μl injected 2 mm distal to injury; 4 days (transection) or 2 days (crush)
Protocol: as §1, with “union. In both injury models, the right sciatic nerves were injected 2-mm distal to the injury with chondroitinase ABC (1 U in 2 μl) (high-purity, protease-free; SIGMA CHEMICAL CO., St. Louis, Mo.). Left sciatic nerves (with the same injury as the right side) were injected with vehicle alone (0.1% bovine serum albumin in PBS).” for “union.”
as §2

## chondroitinase ABC
[1]
  axonal regeneration after nerve crush injury (GAP-43 immunoreactivity) vs vehicle: not significantly effected
[2]; 1 U in 2 μl, 4 days after injury, 7 nerves per condition
  score of axons immediately distal to the coaptation vs control: two-fold greater
[2]; 4 days after injury
  animals in which the number of axons entering the distal nerve was greater than in the control nerve: 7/7
[2]; GAP-43 and laminin double-immunolabeling
  propensity of axons to regrow within basal laminae of the distal nerve: unaltered
[2]; axons immediately distal to coaptation, 4 days
  animals with increases greater than 3.5-fold: 3/7
[3]
  average number of axons (GAP-43-immunopositive profiles) entering grafts vs control grafts: more than three-fold greater
[4]
  CSPG degradation in extracellular matrix around the injection site: substantially, if not completely, degraded CSPG

From US7732200B2, “Materials and methods for nerve grafting, selection of nerve grafts, and in vitro nerve tissue culture” (University of Florida Research Foundation, Inc., priority 2001, dated 2010)
